Patent US11555042B2, “Macrocyclic compounds as TRK kinases inhibitors” (FOCHON BIOSCIENCES, LTD., priority 2018, dated 2023)

Key:
Format in all cases: cell-based
KM12 cells = KM12 cells proliferation inhibition (MTS), mechanism-based assay for TRK; conditions: Homo sapiens, KM12, 72 h
In short: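 KM12 cells (1000 cells/well, RPMI-1640 plus 10% FBS) were treated with compounds at 1.5–10000 nM final for 72 h at 37 °C. Viability was measured by MTS for 2 h, stopped with SDS, with absorbance read at 490 nm (650 nm reference). IC50 was calculated from the readings.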

ETV6-TRKC = biological target: T1, ETV6-TRKC (Homo sapiens, UniProt Q16288); experiment: Engineered Ba/F3 cell proliferation inhibition (MTS), ETV6-TRKC; conditions: 72 h
T1 construct: fused on or other part: P41212 (Transcription factor ETV6)
T1 sequence (Q16288 whole entry, the tested form may be a part): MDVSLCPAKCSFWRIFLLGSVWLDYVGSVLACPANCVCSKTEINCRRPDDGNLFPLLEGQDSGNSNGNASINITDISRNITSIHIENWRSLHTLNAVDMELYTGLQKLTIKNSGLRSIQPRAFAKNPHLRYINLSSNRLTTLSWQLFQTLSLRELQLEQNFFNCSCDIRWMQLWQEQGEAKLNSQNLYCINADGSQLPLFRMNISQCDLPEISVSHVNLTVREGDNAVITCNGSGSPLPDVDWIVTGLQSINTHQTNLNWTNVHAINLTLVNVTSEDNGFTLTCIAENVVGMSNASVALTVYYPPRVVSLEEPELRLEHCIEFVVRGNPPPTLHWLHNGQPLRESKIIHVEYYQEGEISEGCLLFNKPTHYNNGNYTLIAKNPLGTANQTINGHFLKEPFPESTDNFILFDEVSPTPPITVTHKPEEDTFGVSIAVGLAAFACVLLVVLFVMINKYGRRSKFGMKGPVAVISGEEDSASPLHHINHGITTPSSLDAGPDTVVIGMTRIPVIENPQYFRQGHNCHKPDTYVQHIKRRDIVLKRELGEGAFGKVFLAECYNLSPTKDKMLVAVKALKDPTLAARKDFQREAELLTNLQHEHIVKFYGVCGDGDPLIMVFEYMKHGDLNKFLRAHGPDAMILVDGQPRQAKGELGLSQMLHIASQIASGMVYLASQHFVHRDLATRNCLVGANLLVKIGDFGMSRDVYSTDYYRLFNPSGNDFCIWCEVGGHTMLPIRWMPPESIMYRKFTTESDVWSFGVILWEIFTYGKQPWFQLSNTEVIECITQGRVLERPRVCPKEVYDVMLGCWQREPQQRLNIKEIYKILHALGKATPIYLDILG
Excerpt: (§1) MTS testing kit was purchased from Promega (Madison, Wis., USA). The RPMI-1640, Fetal bovine serum and Penicillin-Streptomycin were purchased from Gibco (San Francisco, Calif., USA). Dimethyl sulfoxide (DMSO) and Puromycin were purchased from Sigma (St. Louis., Mo., USA). Mouse interleukin-3 (IL-3) was purchased from Cell signaling Technology (Boston, Mass., USA).
(§2) To investigate whether a compound is able to inhibit the activity of TRK fusion mutation in cells, a mechanism-based assay using engineered Ba/F3 cell lines stably overexpressing oncogenic rearrangement or gene mutation of TRK (TPM3-TRKA, TPM3-TRKA-G595R, AFAP1-TRKB, ETV6-TRKC and ETV6-TRKC-G623R) were developed. In this assay, inhibition of TRK fusion mutation was detected by the cell proliferation inhibition of engineered Ba/F3 cells. Engineered Ba/F3 cells were cultured in culture flasks to 40-80% confluence in RPMI-1640 supplemented with 10% fetal bovine serum, 2 ug/mL puromycin. Cells were collected and plated onto 96-well plates at desired cell density (Ba/F3-TPM3-TRKA: 3×10^4/mL, Ba/F3-TPM3-TRKA-G595R: 1×10^5/mL, Ba/F3-AFAP1-TRKB: 1×10^5/mL, Ba/F3-ETV6-TRKC: 3×10^4/mL, Ba/F3-ETV6-TRKC-G623R: 3×10^4/mL). Plates were incubated at 37° C., with 5% CO2 for 4 h. Compounds were then added to the plates with the final compound concentrations of 10000, 3333, 1111, […], 123, 41.2, 13.7, 4.6 and 1.5 nM. Plates were incubated at 37° C., with 5% CO2 for 72 h. A mixture of 20 μl MTS/100 μl medium were added to each well and the plates were incubated at 37° C., with 5% CO2 for exactly 2 h. The reaction was stopped by adding 25 μl of 10% SDS per well. The absorbance was measured at 490 nm and 650 nm (reference wavelength). IC50 was calculated using GraphPad Prism 5.0 software.

TPM3-TRKA = biological target: T2, TPM3-TRKA (Homo sapiens, UniProt P04629); experiment: Engineered Ba/F3 cell proliferation inhibition (MTS), TPM3-TRKA; conditions: 72 h
T2 construct: TPM3 (tropomyosin alpha-3, P06753) fusion partner; expressed in transfected cells; host or cells: Ba/F3; the other entry of the earlier key: TPM3 (P06753, Tropomyosin alpha-3 chain)
T2 sequence (P04629 510-796 limits assumed): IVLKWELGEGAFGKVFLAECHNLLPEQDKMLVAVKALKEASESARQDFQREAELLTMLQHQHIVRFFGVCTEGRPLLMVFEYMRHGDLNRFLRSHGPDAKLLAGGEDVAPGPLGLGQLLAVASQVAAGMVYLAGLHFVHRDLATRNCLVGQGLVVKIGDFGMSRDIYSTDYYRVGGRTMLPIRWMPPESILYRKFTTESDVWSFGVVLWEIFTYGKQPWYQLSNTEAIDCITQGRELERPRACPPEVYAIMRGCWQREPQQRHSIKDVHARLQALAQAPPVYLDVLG
Excerpt: as §1, §2

ETV6-TRKC-G623R = biological target: T3, ETV6-TRKC-G623R (Homo sapiens, UniProt Q16288, G623R); experiment: Engineered Ba/F3 cell proliferation inhibition (MTS), ETV6-TRKC-G623R; conditions: 72 h
T3 construct: fused on or other part: P41212 (Transcription factor ETV6)
T3 sequence (Q16288 whole entry G623R, the tested form may be a part): as the sequence (Q16288 whole entry, the tested form may be a part) above, with G623R counted along it
In short: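 Ba/F3 cells stably expressing the TRK fusion, grown with puromycin, were plated 4 h then treated 72 h at 37 °C with compound 1.5–10000 nM final. Proliferation measured by MTS (2 h), absorbance at 490 nm with 650 nm reference; IC50 derived by curve fit.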

TPM3-TRKA-G595R = biological target: T4, TPM3-TRKA-G595R (Homo sapiens, UniProt P04629, G595R); experiment: Engineered Ba/F3 cell proliferation inhibition (MTS), TPM3-TRKA-G595R; conditions: 72 h
T4 construct: TPM3 (tropomyosin alpha-3, P06753) fusion partner; expressed in transfected cells; host or cells: Ba/F3; the other entry of the earlier key: TPM3 (P06753, Tropomyosin alpha-3 chain)
T4 sequence (P04629 510-796 G595R limits assumed): as the sequence (P04629 510-796 limits assumed) above, with G86R counted along it
Excerpt: as §1, §2

Compound	IC50 (ETV6-TRKC)	IC50 (TPM3-TRKA)	IC50 (ETV6-TRKC-G623R)	IC50 (TPM3-TRKA-G595R)	IC50 (KM12 cells)
C[C@@H]1CCc2ncc(F)cc2[C@@]23C[C@@H]2CCN3c2ccn3ncc(c3n2)C(=O)N1 [Example 20, (1^3E,1^4E,2^1R,2^5S,6R)-3^5-fluoro-6-methyl-2^2,7-diaza-1(5,3)-pyrazolo[1,5-a]pyrimidina-3(3,2)-pyridina-2(2,1)-bicyclo[3.1.0]hexanacyclooctaphan-8-one]	1 nM	1 nM	1 nM	1 nM	1 nM
C[C@H]1CNC(=O)c2cnn3ccc(nc23)N2CC[C@H]3C[C@]32c2cc(F)ccc2O1 [Example 22, (1^3E,1^4E,2^1R,2^5S,5S)-3^5-fluoro-5-methyl-4-oxa-2^2,7-diaza-1(5,3)-pyrazolo[1,5-a]pyrimidina-2(2,1)-bicyclo[3.1.10]hexana-3(1,2)-benzenacyclooctaphan-8-one]	1 nM	1 nM	1 nM	1 nM	1 nM
C[C@H]1COc2ccc(F)cc2[C@@]23C[C@@H]2CCN3c2ccn3ncc(c3n2)C(=O)N1 [Example 24, (1^3E,1^4E,2^1R,2^5S,6S)-35-fluoro-6-methyl-4-oxa-2^2,7-diaza-1(5,3)-pyrazolo[1,5-a]pyrimidina-2(2,1)-bicyclo[3.1.0]hexana-3(1,2)-benzenacyclooctaphan-8-one]	1 nM	1 nM	4 nM	1 nM	1 nM
C[C@@H]1CCc2ccc(F)cc2[C@@]23C[C@@H]2CCN3c2ccn3ncc(c3n2)C(=O)N1 [Example 27, (1^3E,1^4E,2^1R,2^5S,6R)-3^5-fluoro-6-methyl-2^2,7-diaza-1(5,3)-pyrazolo[1,5-a]pyrimidina-2(2,1)-bicyclo[3.1.0]hexana-3(1,2)-benzeneacyclooctaphan-8-one]	1 nM	1 nM	1 nM	1 nM	1 nM
C[C@@H]1CCc2ncc(F)cc2[C@@]23C[C@@H]2CCN3c2ccc3ncc(n3n2)C(=O)N1 [Example 29, (2^1R,2^5S,6R,E)-3^5-fluoro-6-methyl-2^2,7-diaza-1(6,3)-imidazo[1,2-b]pyridazina-3(3,2)-pyridina-2(2,1)-bicyclo[3.1.0]hexanacyclooctaphan-8-one]	1 nM	1 nM	1 nM	1 nM	1 nM
C[C@H]1CCc2ccc(F)cc2[C@@]23C[C@@H]2CCN3c2ccn3ncc(c3n2)C(=O)N1 [Example 31, (1^3E,1^4E,2^1R,2^5S,6S)-35-fluoro-6-methyl-2^2,7-diaza-1(5,3)-pyrazolo[1,5-a]pyrimidina-2(2,1)-bicyclo[3.1.0]hexana-3(1,2)-benzenecyclo-octaphan-8-one]	1 nM	1 nM	3 nM	1 nM	1 nM
C[C@@H]1COc2ccc(F)cc2[C@@]23C[C@@H]2CCN3c2ccc3ncc(n3n2)C(=O)N1 [Example 36, (2^1R,2^5S,6R,E)-3^5-fluoro-6-methyl-4-oxa-2^2,7-diaza-1(6,3)-imidazo[1,2-b]pyridazina-2(2,1)-bicyclo[3.1.0]hexana-3(1,2)-benzenacyclooctaphan-8-one]	3 nM	2 nM	13 nM	17 nM	6 nM
C[C@@H]1CCc2ccc(F)cc2[C@@]23C[C@@H]2CCN3c2ccc3ncc(n3n2)C(=O)N1 [Example 37, (2^1R,2^5S,6R,E)-3^5-fluoro-6-methyl-2^2,7-diaza-1(6,3)-imidazo[1,2-b]pyridazina-2(2,1)-bicyclo[3.1.0]hexana-3(1,2)-benzena-cyclooctaphan-8-one]	3 nM	1 nM	8 nM	10 nM	9 nM
C[C@@H]1COc2ccc(F)cc2[C@]23C[C@H]2CCN3c2ccn3ncc(c3n2)C(=O)N1 [Example 38, (1^3E,1^4E,2^1R,2^5S,6R)-3^5-fluoro-6-methyl-4-oxa-2^4,7-diaza-1(5,3)-pyrazolo[1,5-a] pyrimidina-2(4,5)-bicyclo[3.1.0]hexana-3(1,2)-benzenacyclooctaphan-8-one]	2 nM	1 nM	23 nM	1 nM	3 nM
O=C1NCCOc2ncc(F)cc2C2(CC2)Nc2ccn3ncc1c3n2 [Example 44, (3′E,4′E)-5′-fluorospiro[cyclopropane-1,3′-5-oxa-2,8-diaza-1(5,3)-pyrazolo[1,5-a]pyrimidina-4(3,2)-pyridinacyclononaphan]-9′-one]	26 nM	18 nM	–	–	35 nM
CN1c2ccn3ncc(c3n2)C(=O)NCCOc2ncc(F)cc2C12CC2 [Example 50, (3′E,4′E)-5′-fluoro-2′-methylspiro-[cyclopropane-1,3′-5-oxa-2,8-diaza-1(5,3)-pyrazolo[1,5-a]pyrimidina-4(3,2)-pyridina-cyclononaphan]-9′-one]	2 nM	11 nM	68 nM	–	10 nM
CCN1c2ccn3ncc(c3n2)C(=O)NCCOc2ncc(F)cc2C12CC2 [Example 66, (3′E,4′E)-2′-ethyl-5′-fluorospiro-[cyclopropane-1,3′-5-oxa-2,8-diaza-1(5,3)-pyrazolo[1,5-a]pyrimidina-4(3,2)-pyridinacyclononaphan]-9′-one]	15 nM	60 nM	–	–	34 nM

Continued, in another order:

IC50 (ETV6-TRKC)	IC50 (TPM3-TRKA)	IC50 (ETV6-TRKC-G623R)	IC50 (TPM3-TRKA-G595R)	Compound	IC50 (KM12 cells)
1 nM	–	–	–	C[C@H]1CNC(=O)c2cnn3ccc(nc23)N2CCC3CC32c2cc(F)ccc2O1 (stereo partly drawn) [Example 3, (1^3E,1^4E,5S)-3^5-fluoro-5-methyl-4-oxa-2^2,7-diaza-1(5,3)-pyrazolo[1,5-a]pyrimidina-2(2,1)-bicyclo[3.1.0]hexana-3(1,2)-benzenacyclooctaphan-8-one]	1 nM
1 nM	3 nM	39 nM	67 nM	C[C@@H]1COc2ncc(F)cc2C2(CC2)Nc2ccn3ncc(c3n2)C(=O)N1 [Example 8, (R,3′E,4′E)-5′-fluoro-7′-methylspiro[cyclopropane-1,3′-5-oxa-2,8-diaza-1(5,3)-pyrazolo[1,5-a]pyrimidina-4(3,2)-pyridinacyclononaphan]-9′-one]	4 nM
1 nM	1 nM	1 nM	1 nM	C[C@@H]1COc2ccc(F)cc2[C@@]23C[C@@H]2CCN3c2ccn3ncc(c3n2)C(=O)N1 [Example 15, (1^3E,1^4E,2^1R,2^5S,6R)-3^5-fluoro-6-methyl-4-oxa-2^2,7-diaza-1(5,3)-pyrazolo[1,5-a]pyrimidina-2(2,1)-bicyclo[3.1.0]hexana-3(1,2)-benzenacyclooctaphan-8-one]	1 nM
1 nM	1 nM	2 nM	1 nM	O=C1NCCOc2ccc(F)cc2[C@@]23C[C@@H]2CCN3c2ccn3ncc1c3n2 [Example 16, (1^3E,1^4E,2^1R,2^5S)-3^5-fluoro-4-oxa-2^2,7-diaza-1(5,3)-pyrazolo[1,5-a]pyrimidina-2(2,1)-bicyclo[3.1.0]Hexana-3(1,2)-benzeneacyclooctaphan-8-one]	1 nM
1 nM	1 nM	2 nM	1 nM	C[C@@H]1COc2ncc(F)cc2[C@@]23C[C@@H]2CCN3c2ccc3ncc(n3n2)C(=O)N1 [Example 18]	1 nM
1 nM	1 nM	1 nM	1 nM	C[C@@H]1COc2ncc(F)cc2[C@@]23C[C@@H]2CCN3c2ccn3ncc(c3n2)C(=O)N1 [Example 19, (1^3E,1^4E,2^1R,2^5S,6R)-3^5-fluoro-6-methyl-4-oxa-2^2,7-diaza-1(5,3)pyrazolo[1,5-a]pyrimidina-3(3,2)-pyridina-2(2,1)-bicyclo[3.1.0]hexanacyclooctaphan-8-one]	1 nM
